Calls of active or inactive are those of the source. The calls are words filed in the database; no cut-off is given here.
Assays:
[1] = Cytotoxicity against mouse LLC cells assessed as survival fraction at 0.1 to 1.5 uM after 4 hrs by MTS reduction assay under dark condition; assay type: cell-based; conditions: lewis lung carcinoma
[2] = Cytotoxicity against mouse LLC cells assessed as survival fraction at 0.1 to 1.5 uM after 12 hrs by MTS reduction assay under dark condition; assay type: cell-based; conditions: lewis lung carcinoma
[3] = test system: Lewis lung carcinoma cell line; assay: Antiproliferative activity against mouse LLC cells assessed as survival fraction at 0.5 uM after 4 hrs pretreated with 15 J/cm2 red light-irradiation by MTS reduction assay; assay type: functional
[4] = test system: Lewis lung carcinoma cell line; assay: Antiproliferative activity against mouse LLC cells assessed as survival fraction at 0.5 uM dissolved in DMSO after 4 hrs pretreated with 15 J/cm2 red light-irradiation by MTS reduction assay; assay type: functional
[5] = test system: Lewis lung carcinoma cell line; assay: Antiproliferative activity against mouse LLC cells assessed as survival fraction at 0.5 uM dissolved in DMSO after 12 hrs pretreated with 15 J/cm2 red light-irradiation by MTS reduction assay; assay type: functional
[6] = test system: Lewis lung carcinoma cell line; assay: Antiproliferative activity against mouse LLC cells assessed as survival fraction at 0.5 uM in liposomal delivery system after 4 hrs pretreated with 15 J/cm2 red light-irradiation by MTS reduction assay; assay type: functional
[7] = test system: Lewis lung carcinoma cell line; assay: Antiproliferative activity against mouse LLC cells assessed as survival fraction at 0.5 uM in liposomal delivery system after 12 hrs pretreated with 15 J/cm2 red light-irradiation by MTS reduction assay; assay type: functional
[8] = Cytotoxicity against mouse LLC cells assessed as change in cell morphology at 2 uM after 12 hrs by fluorescence microscopy under dark condition; assay type: cell-based; conditions: lewis lung carcinoma
[9] = test system: Lewis lung carcinoma cell line; assay: Antiproliferative activity against mouse LLC cells assessed as F-actin construction damage at 2 uM in liposomal delivery system after 12 hrs pretreated with 15 J/cm2 red light-irradiation by fluorescence microscopy; assay type: functional, cell-based
[10] = test system: Lewis lung carcinoma cell line; assay: Antiproliferative activity against mouse LLC cells assessed as nuclear damage at 2 uM in liposomal delivery system after 12 hrs pretreated with 15 J/cm2 red light-irradiation by fluorescence microscopy; assay type: functional, cell-based
[11] = test system: Lewis lung carcinoma cell line; assay: Antiproliferative activity against mouse LLC cells assessed as DNA […] at 2 uM in liposomal delivery system after 12 hrs pretreated with 15 J/cm2 red light-irradiation by fluorescence microscopy; assay type: functional, cell-based
[12] = test system: Lewis lung carcinoma cell line; assay: Antiproliferative activity against mouse LLC cells assessed as survival fraction at 5 uM after 24 hrs pretreated with 15 J/cm2 red light-irradiation by MTS reduction assay; assay type: functional

For CCCCCCCC1c2cc3[nH]c(cc4nc(cc5[nH]c(cc(n2)[C@]1(C)CC(=O)N(C)C)c(C)c5CCC(=O)O)C(CCC(=O)O)=C4C)cc3C (mixture of isomers), the Activity [1] was “Non-toxic”, the Activity [2] was “Non-toxic” and the Activity [3] was 22.3%. For the same compound, the Activity [4] was 70.6%, the Activity [5] was 74.4% and the Activity [6] was 20.3%. The Activity [7] was 34.8%, the Activity [8] was “Toxic” and the Activity [9] was “Active”. For the same compound, the Activity [10] was “Active” and the Activity [11] was “Active”.
For C=CC1=C(C)c2cc3[nH]c(cc4nc(cc5[nH]c(cc1n2)c(C)c5CCC(=O)[O-])C(CCC(=O)[O-])=C4C)c(C)c3C=C.[Na+].[Na+] [PROTOPORPHYRIN DISODIUM], the Activity [12] was 60.7%.

Source: ChEMBL document CHEMBL1153094, “Spectroscopic and biological studies of a novel synthetic chlorin derivative with prospects for use in PDT” (Bioorg Med Chem, 2009)
